Source: patent publication US8299237B2, “Nucleic acid sequences comprising NF-κB binding site within O(6)-methylguanine-DNA-methyltransferase (MGMT) promoter region and uses thereof for the treatment of cancer and immune-related disorders” (Hadasit Medical Research Services & Development Ltd., priority 2007, dated 2012)
Entries after “also recorded” stand apart in the source; their conditions may differ. Where two headings read alike, the source gives them in different places.

Tests used:
[1] = test system: glioma cell lines A172, U87MG and T98G; assay: BCNU crystal violet viability test in glioma cell lines; type: cell-based; settings: BCNU 5-80 μg/ml, 2 hrs; viability 48 hrs later; p<0.001
Description: (§1) Various glioma cell lines (A172, U87MG, and T98G) or HEK293 were transiently transfected with different plasmids as indicated above. For the BG-treated groups, BG (Benzyl Guanine, an MGMT inhibitor) was added to the cell medium 4-6 hrs after transfection at a final concentration of 80 μM and incubated with the cells for the duration of the experiment. At 24 hrs following transfection, the cells were exposed for 2 hrs to increasing concentrations of BCNU (as indicated), which is a β-chloro-nitrosourea compound used as an alkylating agent in chemotherapy. The cells were fixed 48 hrs later with 4% paraformaldehyde for 20 min at room temperature, and washed twice with PBS. A 400 μl volume of 0.5% crystal violet in dH2O was added and the cells were stained for 15 min on a vibrator at 300 rpm. The dye was aspirated, the wells rinsed with dH2O, and the plate was allowed to dry in the hood. For destaining, 400 μl of 10% acetic acid were added to each well and the cells were incubated for 15 min on a vibrator at 300 rpm. The optical density (OD590) of the de-stained solution in each well was read and recorded.
(§2) To determine whether this also results in induction of cellular resistance to alkylating agents, the sensitivity of the three glioma cell lines to increasing quantities of BCNU (5-80 μg/ml), was next compared. […]

[2] = test system: MGMT-kB1-Luc reporter construct induced by NF-κB/p65; assay: Luciferase reporter assay, MGMT-kB1-Luc co-transfected with NF-κB/p65; type: cell-based, human; settings: for effect on luciferase activity driven by MGMT-kB1 reporter (in words): HEK293T co-transfected with MGMT-kB1 reporter and NF-κB/p65
Description: (§3) Transient transfections were performed in 6-well plates, using the FuGene6 transfection reagent (Roche Diagnostics GmbH, Mannheim, Germany), according to the manufacturer's instructions. U87MG, T98G, and A172 cells were transfected with pNF-κB-Luc reporter Vector (Clontech, Palo Alto, Calif.), while RG2 and U87MG were transfected with MGMT-Luc [construct p-954/+24 mL [Biswas T. et al. Oncogene 18:525-32 (1999)] kindly provided by Sankar Mitra] (1 μg/well). CMVβ-galactosidase expression vector (CMVβgal-Clonthech) was included (0.1 μg/well) in each transfection to normalize transfection efficiency. HEK293 cells were transfected with CMVβgal alone or along with one or more of the following plasmids: CMVp65, CMVΔNIκB, CMVp50, CMVcJun. CMVp65 and CMVΔNIκB plasmids were kindly provided by Prof. Yinon. Ben-Neriah (The Hebrew University, Jerusalem, Israel), CMVp50 and CMVcJun were kindly provided by Dr. Danielle Melloul (Hadassah Hebrew University Medical Center, Jerusalem, Israel).
At 24 hrs following transfection, the cells were lysed for 15 min on ice with 200 μl of luciferase lysis buffer (Promega, Madison, Wis.). Luciferase assays were carried out using a Promega assay kit and a luminometer (EG&G Berthold, Bad Wildbad, Germany). The activity was normalized to β-galactosidase activity (Promega) and plotted as the mean±s.d. of triplicates from a representative experiment.
For the cloning of the MGMT-luc constructs the reporter vector p-TA-Luc (Clontech, Palo Alto, USA) was used. The plasmid contains TATA box motif upstream to a luciferase reporter gene. A double stranded DNA corresponding to four repeats of each sequence as indicated by FIG. 8A (also denoted by SEQ ID NO. 44, 45, 46 and 47), was synthesis by syntezza LTD and ligated upstream to the TATA box.
To test the activity of these sites, several luciferase reporter genes bearing four copies of either intact or mutant sequence, of each of the two NF-κB sites (NF-κB1 and NF-κB2), were constructed as indicated in Experimental procedures. […] An inhibition of approximately 50% was observed using 100 nM ODN. Negative control using the CMVΔNIκB (ΔN)-Luc construct as well as positive control using the canonical HIV-κB-Luc reporter construct, confirmed validity of the data.
Induction of over expression of NF-κB in HEK 293T cells by transfection of a CMV-NF-κB/p65 generated a 50-fold elevation in luciferase expression driven by the Co-transfected reporter construct MGMT-kB1-Luc. […] Inhibition of approximately 90% was induced by 150 nM LMODN. […] No inhibition was detected when a mutant LMODN was introduced into the cells, indicating the specificity of MGMT-kB1-LMODN (of SEQ ID NO. 40 and 41). […] 3 (HIV-κB-Luc construct).

T98MG gliomas cell line [3] = type: cell-based, human
Description: (§4) T98MG glioma cell line cells were treated with increasing doses of the decoy ODN's of the invention. Double stranded ODNs (30mers), corresponding to MGMT-κB1 binding site (as also denoted by SEQ. ID. NO. 1), and control ODNs were purchased from IDT. Each strand of ODN was thirty-mers and contained six LNA nucleotides. The following ODNs were used: MGMT-kB1forward: 5′---+T+AATGGGG+ACTTTAC GGG+[…]+A+T---3′ (as also denoted by SEQ. ID. NO. 40) with or without the 5′ end labeled with carboxyfluorescein-5-succimidyl ester (FAM). The MGMT-kB1 reverse ODN: 5′---+A+TTCTGTA+[…]+[…]+T+A---3′ as also denoted by SEQ ID NO. 41). Control forward: 5′---+T+AG TGT CG+A CTT CAC TCT+ACT TGA CAG A+A+T---3′ (as also denoted by SEQ ID NO. 42), control reverse: 5′---+A+TT CTG TC+A AGT AGA GTG+AAG TCG ACA C+T+A---3′ as also denoted by SEQ ID NO. 43). It should be noted that (+designated as nucleotide containing an LNA modification).
(§5) The viability of the cells was tested 24-48 hrs later by CellTiter-Blue assay (Promega®). The assay was carried out according to the supplier's instructions. Briefly, the assay is based on the ability of living cells to convert a redox dye (resazurin) into a fluorescent end product (resorufin). Cell viability estimation is done by measuring the fluorescent intensity of resorufin (ex. 560 nm, em. 590 nm) using a fluorescent microplate reader.
The inventors next tested the potential of the decoy LMODN molecules of the invention to sensitize tumor cells to alkylating agents and thereby improve their efficacy as anti-cancerous treatment. Therefore, several human cancer cell lines were treated with alkylating agents with increasing doses of MGMT-kB1-ODN followed by cell viability tests. First, the sensitivity of each cell line to several alkylating agents, mainly temozolomide (TMZ) and BCNU was calibrated. At 24 hrs following sowing, cells were exposed for two hours to increasing concentrations of the alkylating agent and viability of the cells was tested 24-48 hrs later by CellTiter-Blue assay (Promega®). To test the potential of MGMT-kB1-LMODN to sensitize tumor cells to alkylating agents in-vitro, increasing doses of LMODNs MGMT-kB1 forward and reverse as denoted by SEQ ID NO. 40 and 41, respectively), with or without the 5′ end labeled with carboxyfluorescein-5-succimidyl ester (FAM), as well as the control LMODNs (as denoted by SEQ ID NO. 42 and 43), were liposomally introduced (Lipofectamine 2000, Invitrogen) to various tumor cancer cells. Twenty four hours later, cells were treated with the different doses of alkylating agents as calibrated before.
FIG. 9 represents an example of T98MG gliomas cell line sensitized to alkylating agents in response to treatment with the LMODN's of the invention. […]

T98MG gliomas cell line [4] = type: cell-based, human; settings: corresponding concentrations, 48 hours
Description: as §4
as §5, with “reader. […]” for “reader.”

HEK293 cells = assay: BG and BCNU treatment, crystal violet viability test in transfected HEK293; type: cell-based, human; settings: BG 80 μM added 4-6 hrs after transfection; control and p65 transfected HEK293; BCNU 20-80 μg/ml 2 hrs
Description: as §1, §2

[5] = test system: canonical NF-κB binding site from HIV (HIV-κB-Luc construct); assay: Luciferase reporter assay, HIV-κB-Luc construct induced by p65; type: cell-based, human; settings: 150 nm LMODN
Description: as §3, with “Israel). […]” for “Israel).”
Induction of over expression of NF-κB in HEK 293T cells by transfection of a CMV-NF-κB/p65 generated a 50-fold elevation in luciferase expression driven by the Co-transfected reporter construct MGMT-kB1-Luc. […] No inhibition was detected when a mutant LMODN was introduced into the cells, indicating the specificity of MGMT-kB1-LMODN (of SEQ ID NO. 40 and 41). […]

## O=NN(CCCl)C(=O)NCCCl [BCNU, 1,3-bis(2-chloroethyl)-1-nitrosourea]
[1]
  resistance of T98G to BCNU compared with A172 and U87MG (in words): more resistant

## mMGMT-kB1-LMODN: mutant control LNA modified ODN; control forward SEQ ID NO. 42, control reverse SEQ ID NO. 43 (sense TAGTGTCGACTTCACTCTACTTGACAGAAT; antisense ATTCTGTCAAGTAGAGTGAAGTCGACACTA; LNA modified, positions not given here; listed as Homo sapiens) [mutant control LNA modified ODN; 43]
[2]
  effect on luciferase activity driven by MGMT-kB1 reporter (in words): No inhibition
T98MG gliomas cell line [3]; 2.5 mM TMZ with mutant LMODN (FIG. 9)
  additive effect with TMZ (in words): no any additive effect
T98MG gliomas cell line [4]
  effect on cell survival (in words): no reduction in cell survival

## Nc1nc(OCc2ccccc2)c2nc[nH]c2n1 [BG, O6-Benzylguanine]
HEK293 cells
  effect of BG on sensitivity to BCNU (in words): augmented the cell sensitivity to BCNU; also recorded: completely abrogated the p65-induced chemoresistance

## Cn1nnc2c(C(N)=O)ncn2c1=O [TMZ, temozolomide]
T98MG gliomas cell line [3]; 2.5 mM TMZ without LMODN
  live cells: 60%

## MGMT-kB1-LMODN: double stranded 30-mer LNA modified decoy ODN of MGMT-κB1 site; forward SEQ ID NO. 40, reverse SEQ ID NO. 41 (sense TAATGGGGACTTTACGGGACTTTACAGAAT; antisense ATTCTGTAAAGTCCCGTAAAGTCCCCATTA; LNA modified, positions not given here; listed as Homo sapiens) [double stranded 30-mer LNA modified decoy ODN of MGMT-κB1 site; 41]
[2]; 150 nM LMODN, liposomal, HEK 293T, MGMT-kB1-Luc + NFκB/p65 (FIG. 8)
  inhibition of luciferase activity: approximately 90%
[2]
  effect on luciferase activity driven by MGMT-kB1 reporter (in words): inhibited the luciferase activity in a dose-dependent manner
[2]; LMODN at 150 nM
  inhibitory activity relative to NF-κB super repressor ΔNI-κB: two fold greater
[5]
  inhibition of p65-induced luciferase expression: 57%
T98MG gliomas cell line [3]
  toxicity to cells, viability of cells treated only with the LMODN: not toxic to the cells
T98MG gliomas cell line [3]; 2.5 mM TMZ with 2 nm LMODN
  live cells: 22%
